Data on 93 molecules can be found in a melting point compilation (Tetko et al.; mined from patent text by program, amines drawn as free bases though some values may be those of a salt).

`CC(O)C(CCCc1ccccc1)n1ncc2c(=O)[nH]c(Cc3ccc(F)cc3)nc21` (stereo not drawn) gave a melting point of 103 °C. For `CC(C)(C#N)c1cc(Cc2cncnc2)cc(C(C)(C)C#N)c1`, the melting point lay in the range of 132 to 134 °C. As for `N#CC1CCn2cccc21` (stereo not drawn), the figure is 44 to 45 °C; as for `Fc1ccc2c(C3=CCN(CC4CCc5ccccc5O4)CC3)c[nH]c2c1` (stereo not drawn), 160 to 161 °C. To `CC1CN(c2c(F)cc3c(=O)c(C(=O)O)cn(C(C)C)c3c2F)CCN1` (stereo not drawn) belongs 217 to 218 °C. As for `CC(=NOCCOc1ccc(CC2SC(=O)NC2=O)cc1)c1cncc(-c2ccccc2)c1` (stereo not drawn), the figure is 150 to 153 °C; as for `NCCCCCCCCCCN1CCN(CC(=O)N2c3ccccc3C(=O)Nc3cccnc32)CC1`, 95 to 97 °C. `Cc1nc(N2CCCC2)nc2c1c(=O)c(C(=O)O)cn2C1CC1` registered a melting point of 253 °C.

`COC(=C[N+](=O)[O-])NCc1cccnc1` displayed a melting point of 129 to 130 °C. `CNC(=O)Cc1ccccc1O` showed a melting point of 105 to 106 °C. To `NCCc1c[nH]c2ccc(-c3ccc(F)cc3)cc12` belongs over 250 °C.

As to `C[C@@H]([C@@H](O)c1ccc(OCc2ccccc2)cc1)N1C2CCC1CC(=Cc1ccccc1)C2` (relative stereo), the melting point lay within 145 to 148 °C. With `CCC1(CC)Oc2cc(OC)c(C#N)cc2[C@@H](N2CCCC2=O)[C@@H]1O` (relative stereo), the melting point was 193 to 195 °C. To `CNC(=O)n1cc(C(N)=O)nc1C(C)(C)C` belongs 145 to 147 °C.

With `CC(C)(COc1ccc(C(N)=O)cn1)NCc1ccccc1`, the melting point lay in the range of 125 to 126 °C. To `O=C(O)c1nccc(OCc2ccccc2)c1OCc1ccccc1` belongs 120 °C; to `COc1ccc(CCN2CCC(NC(=O)c3ccccc3)CC2)cc1`, 178 °C; to `CSc1ccc(-c2c(C#N)cnn2-c2ccc(F)cc2)cc1`, 122 to 123 °C. On to `COc1cc2c(c3c1OC(C)(C)C3)C(c1cccc(C#N)c1)=NCC2(C)C`, for which the melting point lay in the range of 178 to 180 °C. As for `CC1(CN2CCC(Oc3ccc(C(F)(F)F)cc3)CC2)Cn2cc([N+](=O)[O-])nc2O1` (stereo not drawn), the figure is 113 to 114 °C; as for `CCNC(=O)c1ccc(COC(=O)c2ccc(OC)c(C(C)(C)C)c2)cc1`, 107 to 108 °C.

In turn, `COc1cc(Cl)c(N=C=S)cc1C(=O)Nc1c(C)cccc1C` came in with a melting point of 191 to 192 °C.

The molecule `COC(=O)CCCCCCNC(=O)C(COS(C)(=O)=O)NS(=O)(=O)c1ccc(Cl)cc1` (racemic) showed a melting point of 77 to 82 °C.

Consider `CCOC(=O)C1CSC(c2nsc3ccc(-n4c(=O)cc(C(F)(F)F)n(C)c4=O)cc23)N1` (stereo not drawn), for which the melting point lay in the range of 97 to 98 °C.

`CSc1ccc(N2CCN(CCCOc3ccc(C4=NCCO4)cc3)CC2)nn1` had a melting point of 163 °C. As for `O=C(NCc1ccccc1)C12CC3CC(CC(C3)C1)C2`, the figure is 170 to 172 °C; as for `CN(C)C(=O)c1cc2c(nc(C(F)(F)F)n2C)c2c1CCC(c1ccccc1)O2` (stereo not drawn), 223 to 225 °C; as for `C=C(CO)C(C(=O)OC(c1ccccc1)c1ccccc1)N1C(=O)C2N=C(Cc3ccccc3)OC21` (stereo not drawn), 40 to 55 °C. The molecule `CCCCCCCCCCCCOC(=O)c1ccc(O)c([N+](=O)[O-])c1` came in with a melting point of 70 °C. To `Nc1ccc(-c2ncnn2-c2ccc(Br)cc2)cc1` belongs 128 to 130 °C. As for `CC(=O)Nc1ccc(-c2ccc(C(C)O)o2)cc1` (stereo not drawn), the figure is 175 to 177 °C; as for `CC(C)c1n[nH]c(=O)n1N`, 172 °C. To `CC(C)CC(=O)Nc1cccc(-c2ccnc3c(-c4ccc(Cl)cc4)cnn23)c1` belongs 215 to 217 °C; to `O=c1ccn(-c2ccc3[nH]c(=O)c(=O)[nH]c3c2)cc1`, over 300 °C; to `NNc1c(F)cc(F)c(F)c1F`, 63 to 65 °C. As for `CCOC(=O)CCCN(C(=O)CCC1CCCCC1)C1N=C(c2ccccc2)c2ccccc2N(C)C1=O` (stereo not drawn), the melting point lay in the range of 103 to 105 °C. The molecule `O=C(O)[C@@H](CCN1Cc2ccccc2C1=O)Oc1c(Br)cc(-c2c3ccccc3c(Br)c3sc4ccccc4c23)cc1Br` registered a melting point of 239 to 241 °C.

With `COc1nc2cc([N+](=O)[O-])c(C)c(C(=O)NCc3ccccc3)c2nc1OC`, the melting point was 171 to 173 °C.

In the case of `CCCCCCCCCCCC(=O)OC1C(C)C(c2ccccc2)N(O)C(c2ccccc2)C1C` (stereo not drawn), the melting point lay in the range of 108 to 112 °C. As for `Cc1cc(C)c(C(=O)c2ccccc2)c(OCC2CO2)c1` (stereo not drawn), the figure is 72 to 74 °C.

On to `O=C(c1cc(Cl)ccc1O)c1cc(Cl)ccc1O`, for which the melting point turned out to be 154 °C. As for `CC(O)c1ccc(N)c(S(N)(=O)=O)c1` (stereo not drawn), the figure is 160 to 162 °C; as for `O=Cc1cccc2ccc(F)cc12`, 95 to 96 °C; as for `CCOc1c(C#N)c(C#N)c(OCC)c2ccccc12`, 167 °C.

`CNC(=N[N+](=O)[O-])N(Cc1cnc(Cl)s1)C(=O)C(C)C` returned a melting point of 101 to 104 °C. As for `CCOC(=O)c1ccc(NCCCCCCOc2ccccc2)cc1`, the figure is 105 to 108 °C. To `CCC(=O)Oc1cc(C(=O)c2c(Cl)cccc2Cl)c(C)cc1OC` belongs 142 to 145 °C; to `Cc1nn(-c2ccc(C(F)(F)F)cn2)cc1CCCOc1ccccc1CC(=O)O`, 128 to 129 °C. As for `OC1CSC(Oc2ccc(F)nc2)C(O)C1O` (stereo not drawn), the figure is 209 to 210 °C. In turn, `CCOCC1OC(n2cnc3c(N)nc(Cl)nc32)C(O)C1O` (stereo not drawn) returned a melting point of 117 to 119 °C. As for `CCCCCc1c(C(C)=O)nc(C(C)C)c(CO)c1-c1ccc(F)cc1`, the figure is 69 to 70 °C; as for `OCC#Cc1cccc2ccncc12`, 138 to 139 °C. To `COC(=O)C(C)Oc1ccc(Oc2ccc(Cl)cc2F)cc1` (stereo not drawn) belongs 55 to 57 °C. As for `CCc1ccc(Sc2nn(-c3ccc(OC)cc3)c(=O)c(C#N)c2C)cc1`, the figure is 159 to 160 °C; as for `CC1(C)OC(=S)Nc2ccc(-c3cncc(Br)c3)cc21`, 252 to 253 °C; as for `O=[N+]([O-])c1c(-c2ccc(Cl)cc2)[nH]c(C(F)(F)F)c1-c1csc(Br)c1Br`, 241 to 242 °C. The molecule `O=S1(=O)NCN(C2CC2)c2c(F)cc(F)c(F)c21` returned a melting point of 149 to 151 °C. To `O=C(CC1CC(OC(=O)c2ccccc2)CCC1=O)c1ccccc1` (stereo not drawn) belongs 107 to 108 °C; to `CCOC(=O)C(C)Oc1ccc(C)cc1` (stereo not drawn), 78 to 82 °C; to `Cc1nn(-c2cc(Oc3ccc(N)cc3)c(Cl)cc2F)c(=O)n1C(F)F`, 133 to 135 °C. Take `Clc1ccc(-n2nc3cc(Cl)ccc3c2Cl)c(Cl)c1`: the melting point is 120 °C.

Molecule `COCc1cc(=O)c(Oc2ccc(F)cc2F)c(-c2ccc(S(C)(=O)=O)cc2)o1` returned a melting point of 124 °C.

As to `CCOC(=O)C1=Cc2cc(Cl)cnc2NC1C(F)(F)F` (stereo not drawn), the melting point is 180 to 182 °C. As for `O=c1ccc(-c2ccc(OC(F)F)c(OCC3CC3)c2)n[nH]1`, the figure is 142 °C; as for `CCOC(=O)NN1CCN(CCCCC(=O)c2ccccc2)CC1`, 105 to 106 °C. As for `Cc1cc(-c2n[nH]c(Cc3ccccc3)n2)sc1C(=O)NCc1ccccc1`, the figure is 168 to 171 °C. To `CCC1(CC)Cc2cc(OC)c(Cl)c(Cl)c2C1=O` belongs 118 °C; to `O=C(c1ccco1)c1cc([N+](=O)[O-])ccc1Cl`, 93 to 96 °C; to `C/C(=C\CC1OC(=O)NC1=O)c1cccc(OCc2nc(-c3ccc(OC(F)(F)F)cc3)oc2C)c1` (stereo not drawn), 105 to 106 °C.

For `N#Cc1ccc2[nH]c(C(N)=O)cc2c1`, the melting point was over 300 °C. To `CN(C)C(=O)N1CCC(Oc2c(F)c(F)c(F)c(F)c2F)(c2ccccc2)CC1` belongs 92 to 96 °C; to `CCCc1ccc(Cc2c(C(F)(F)F)[nH][nH]c2=O)cc1`, 114 to 116 °C. To `N#Cc1ccc(N2CCC(CO)CC2)c2ccccc12` belongs 135 to 136 °C; to `COC(=O)c1cc(C(=O)OC)nc(O)n1`, 186 to 188 °C. To `CCc1c(Oc2ccc([N+](=O)[O-])cc2C(F)(F)F)nn(C(=O)NC)c1C` belongs 96 to 97 °C; to `CCCCCCCCc1ccc(CCC(CO)(CO)NC(C)=O)s1`, 58 to 60 °C. Turning to `CCOC(=O)Cc1ccc(-c2nc(COc3ccc(CO)cc3OC)c(C)o2)cc1`, the melting point is 97 to 98 °C. To `COc1cc(CCNC(=O)N(C)O)cc(OC)c1` belongs 121 to 123 °C.

Take `CCOC(=O)N1CCC(n2cnc(-c3ccc(F)cc3)c2-c2ccnc(NC)n2)CC1`: the melting point was 205 to 206 °C. To `CC(=O)OC1C(=O)NC1c1ccco1` (stereo not drawn) belongs 118 to 119 °C; to `CCCCC1(c2cccc(O)c2)CCCCN(C)C1=O` (stereo not drawn), 138 to 142 °C; to `COc1cccc2c1CCC=C2N1CCOCC1`, 80 to 90 °C. In the case of `CC(C)Cn1c(CO)c(-c2ccccc2)c2cc(Br)ccc2c1=O`, the melting point is 176 to 177 °C.

The molecule `NC(=O)CCCCCCCCCCn1nnnc1S` came in with a melting point of 112 to 114 °C. In the case of `Cl/C(=C\n1ccnc1)c1ccc(Cl)cc1Cl`, the melting point worked out at 59.1 °C. To `CCS(=O)(=O)Nc1cc(-n2nc(C(F)F)n(C)c2=S)c(F)cc1C(N)=S` belongs 183 °C. As for `CC(=O)N1CCC(c2nc(-c3ccncc3)c(-c3ccc(F)cc3)[nH]2)CC1`, the figure is 235 to 236 °C. To `O=C1c2ccccc2-c2c1c1ccccc1c(=O)n2CCCNS(=O)(=O)c1ccccc1` belongs 216 to 218 °C.

The molecule `CNC(=O)C1=CC(C)(COC)Oc2ccc([N+](=O)[O-])cc21` (stereo not drawn) showed a melting point of 128 to 130 °C. As for `CCC(Oc1cnc(Cl)c(Cl)c1)C(=O)O` (stereo not drawn), the figure is 117 to 118 °C; as for `C1CNCCN2CCOCCOCCN(CCN1)CCOCCOCC2`, 69 °C. To `O=C(O)C1CC2CCC1c1[nH]c3ccccc3c12` (stereo not drawn) belongs 212 to 214 °C; to `COC(=O)Cc1coc2cc(OCc3cc(-c4ccc(Cl)cc4)on3)ccc12`, 136 to 137 °C.
